Where two headings read alike, the source gives them in different places.
Assays:
[1] = tested on: brown planthopper (Nilaparvata lugens); test: Activity against the brown planthopper, dust on rice seedlings; type: in vivo; details: topical, 10 mg per pot, resistant strain, final instar larvae, 72 hours, 25° C., read-out: Percentage mortality, Brown planthopper
Method: (§1) A dust was prepared by homogeneously mixing and pulverizing twice with a pulverizer 2 parts by weight of each in turn of the test compounds indicated in Table 4 and 98 parts by weight of clay. The dusts were then sprayed onto rice seedlings planted in plastic pots and covered with a plastic cylinder in amounts sufficient to provide 10 mg of the […] dust per pot (corresponding to 1.4 kg of dust per 10 ares). 10-15 of the final instar larvae of the green rice leafhopper (Naphotettix cincticeps) or of the brown planthopper (Nilaparvata lugens) of strains known to be resistant both to conventional organic phosphorus and carbamate insecticides were released into each pot. After maintaining the pots at 25° C. for 72 hours, the percentage mortality of the larvae was assessed. Each test was carried out twice and the results averaged.

[2] = tested on: green peach aphid (Myzus persicae); test: Control of green peach aphid, contact activity; type: in vivo; details: topical, 72 hours, 25° C., read-out: Percentage mortality of green peach aphid, Contact
Method: (§2) A wettable powder was prepared by homogeneously mixing and pulverizing three times in a hammer mill 10 parts by weight of one of the test compounds indicated in Tables 2 and 3, 4 parts by weight of sodium dodecylbenzene sulphonate, 2 parts by weight of polyvinyl alcohol and 84 parts by weight of clay. The wettable powder thus prepared was then diluted with water to the concentration indicated in Table 1, and then 0.01% w/v of Gramin (a spreader) was added.
The resulting diluted solution was then sprayed onto the leaves of a cabbage bearing green peach aphids (Myzus persicae) in an amount of 10 ml per leaf. The leaf stalk of each leaf was then placed in a 30 ml bottle containing water and the mouth of the bottle was plugged with cotton wool. The bottles were then left in a room maintained at 25° C.

[3] = tested on: green peach aphid (Myzus persicae); test: Control of green peach aphid, systemic activity; type: in vivo; details: 72 hours, 25° C., read-out: Percentage mortality of green peach aphid, Systemic
Method: as §2
The suspensions were then poured into 30 ml bottles. Leaves of the Chinese mustard "Komatsuna" bearing green peach aphids were then placed in the bottles and the mouths of the bottles were plugged with cotton wool. The bottles were placed in a room maintained at 25° C. for 72 hours, after which the percentage mortality of the aphids was assessed.

[4] = Toxicity test in mice, mortality after 7 days (Litchfield and Wilcoxon); set-up: species or system mice (ddY-SLC); details: mouse, in vivo
Method: Each of the compounds listed in Table 1 was administered in the form of a suspension, to which 0.5% w/v gum tragacanth had been added, to a group of 5 week old ddY-SLC series mice. Each test group consisted of 10 male and 10 female mice. The LD50 value was calculated, by the method of Litchfield and Wilcoxon [J. Pharmac. Exp. Ther. 96, 99 (1949)], from the mortality rate after 7 days.

[5] = tested on: green rice leafhopper (Naphotettix cincticeps); test: Activity against the green rice leafhopper, dust on rice seedlings; type: in vivo; details: Nephotettix cincticeps, topical, 10 mg per pot, resistant strain, final instar larvae, 72 hours, 25° C., read-out: Percentage mortality, Green rice leafhopper
Method: as §1

[6] = tested on: green peach aphids of a strain resistant to organic phosphate insecticides; test: Activity against green peach aphids (mixed formulation); type: in vivo; details: Myzus persicae, topical, read-out: Percentage mortality
Method: Emulsifiable concentrates containing a total of 25% by weight of active ingredient or ingredients were prepared as described in Example 22 and diluted with water to the concentrations given in the following Table 6. Each emulsion contained as active ingredient Compound No. 1, Compound No. 9 or the known insecticide isoxathion alone or contained a mixture of isoxathion and Compound No. 1 or No. 9. The diluted emulsions were sprayed, in an amount of 10 ml per leaf, onto the leaves of the Chinese mustard "Komatsuna" bearing green peach aphids of a strain known to be resistant to organic phosphate insecticides. The leaf stalks of the leaves were placed into 30 ml bottles and the mouths of the bottles were plugged with cotton wool. After maintaining the leaves at 25° C. for 72 hours, the percentage mortality was assessed and the results are shown in Table 6. The expected percentage mortality of the combinations of Compound No. 1 or No. 9 with Isoxation is shown in parentheses in the table.

[7] = tested on: brown planthopper; test: Activity against the brown planthopper (mixed formulation); type: in vivo; details: Nilaparvata lugens, topical; for mortality at 50 mg: read-out: percentage mortality, insecticide alone (Compound 1 0 mg)
Method: Soil and water were placed into plastic pots having inside diameters and heights each of about 10 cm to prepare the pots for submerged cultivation,with water to a depth of about 2 cm. Rice seedlings were then planted in the pots and maintained in a greenhouse, until they had grown to a height of about 15 cm.
Dusts were prepared, each containing 0.1% w/w of Compound No. 1 or of the known organic phosphate or carbamate insecticides listed in Table 5, and these were homogeneously applied, in the amounts specified in the Table, to each pot. 10-15 of the final instar larvae of the brown planthopper were then released onto each pot. The pots were then covered and maintained at 25° C. for 72 hours, after which the percentage mortality of the larvae was assessed.
The experiments were conducted using the known organic phosphate and carbamate insecticides either alone or together with Compound No. 1 (50 mg). The percentage mortality achieved using Compound No. 1 alone in an amount of 50 mg was also assessed and found to be 0%. The expected percentage mortality of the combination of Compound No. 1 with the known organic phosphate and carbamate insecticides was calculated by the method of C. I. Bliss [Ann. Appl. Biol. 26, 585 (1939)] and is shown in parentheses in the Table.

[8] = 0.1% dust 50 mg, 72 hours, 25° C.

| SMILES | mortality at 50 ppm [2] | mortality at 6.25 ppm [3] | further results |
| --- | --- | --- | --- |
| Cc1cc(OC(=O)N(C)C)no1 [3-Dimethylcarbamoyloxy-5-methylisoxazole, reference compound] | 84% | 89% | mortality at 10 mg/pot [1]: 22%; mortality at 12.5 ppm [2]: 34%; mortality at 1.56 ppm [3]: 74%; LD50 at 168 h ([4]; male/female mice): 31.2 mg/kg; mortality at 10 mg/pot [5]: 9% |
| CSCc1cc(OC(=O)N(C)C)no1 [Compound No. 1, 3-Dimethylcarbamoyloxy-5-methylthiomethylisoxazole] | 100% | 100% | mortality at 10 mg/pot [1]: 100%; mortality at 12.5 ppm [2]: 83%; mortality at 1.56 ppm [3]: 100%; mortality at 5 ppm ([6]; 72 h): 25.8%; mortality at 10 ppm ([6]; 72 h): 59.8%; LD50 at 168 h ([4]; female mice): 109 mg/kg; LD50 at 168 h ([4]; male mice): 110 mg/kg; mortality at 10 mg/pot [5]: 65%; mortality at 50 mg/pot ([7]; 72 h, read-out: percentage mortality, Compound No. 1 alone): 0% |
| CCSCc1cc(OC(=O)N(C)C)no1 [Compound No. 2, 3-Dimethylcarbamoyloxy-5-ethylthiomethylisoxazole] | 100% | 100% | mortality at 10 mg/pot [1]: 95%; LD50 at 168 h ([4]; female mice): 104 mg/kg; LD50 at 168 h ([4]; male mice): 125 mg/kg; mortality at 10 mg/pot [5]: 67% |
| CN(C)C(=O)Oc1cc(C[S+](C)[O-])on1 (stereo not shown) [Compound No. 5, 3-Dimethylcarbamoyloxy-5-methylsulphinylmethylisoxazole] | 86% | 100% |  |
| CSCc1onc(OC(=O)N(C)C)c1Cl [Compound No. 9, 4-Chloro-3-dimethylcarbamoyloxy-5-methylthiomethylisoxazole] | 100% | 100% | mortality at 10 mg/pot [1]: 100%; mortality at 12.5 ppm [2]: 90%; mortality at 1.56 ppm [3]: 100%; mortality at 2.5 ppm ([6]; 72 h): 20.1%; mortality at 5 ppm ([6]; 72 h): 38.4% |
| CN(C)C(=O)Oc1noc(CS(C)(=O)=O)c1Cl [Compound No. 12, 4-Chloro-3-dimethylcarbamoyloxy-5-methylsulphonylmethylisoxazole] | 82% | 90% |  |
| CCOP(=S)(OCC)Oc1cc(-c2ccccc2)on1 [Isoxathion, O,O-Diethyl O-(5-phenyl-3-isoxazolyl)phosphorothioate, reference compound] |  |  | mortality at 25 ppm ([6]; Isoxathion 25 ppm, 72 hours, 25° C.): 0%; mortality at 50 ppm ([6]; Isoxathion 50 ppm, 72 hours, 25° C.): 4.4% |
| CNC(=O)Oc1ccccc1C(C)C [MIPC, 2-Isopropylphenyl N-methylcarbamate] |  |  | mortality at 50 mg [7, 8]: 25% |
| CNC(=O)Oc1cccc(C)c1 [MTMC, 3-Tolyl N-methylcarbamate] |  |  | mortality at 50 mg [7, 8]: 20.8% |
| CNC(=O)Oc1cccc2ccccc12 [NAC, 1-Naphthyl N-methylcarbamate] |  |  | mortality at 50 mg ([7]; 72 h): 29.2% |
| CCCSCc1cc(OC(=O)N(C)C)no1 [compound 3, 3-Dimethylcarbamoyloxy-5-propylthiomethylisoxazole] | 86% | 100% | mortality at 10 mg/pot [1]: 68%; mortality at 10 mg/pot [5]: 68% |
| CC(C)SCc1cc(OC(=O)N(C)C)no1 [compound 4, 3-Dimethylcarbamoyloxy-5-isopropylthiomethylisoxazole] | 81% | 96% |  |
| CC[S+]([O-])Cc1cc(OC(=O)N(C)C)no1 (stereo not shown) [compound 6, 3-Dimethylcarbamoyloxy-5-ethylsulphinylmethylisoxazole] | 88% | 100% |  |
| CN(C)C(=O)Oc1cc(CS(C)(=O)=O)on1 [compound 7, 3-Dimethylcarbamoyloxy-5-methylsulphonylmethylisoxazole] | 82% | 85% |  |
| CCS(=O)(=O)Cc1cc(OC(=O)N(C)C)no1 [compound 8, 3-Dimethylcarbamoyloxy-5-ethylsulphonylmethylisoxazole] | 80% | 85% |  |
| CCSCc1onc(OC(=O)N(C)C)c1Cl [compound 10, 4-Chloro-3-dimethylcarbamoyloxy-5-ethylthiomethylisoxazole] | 97% | 100% |  |
| CN(C)C(=O)Oc1noc(C[S+](C)[O-])c1Cl (stereo not shown) [compound 11, 4-Chloro-3-dimethylcarbamoyloxy-5-methylsulphinylmethylisoxazole] | 100% | 100% |  |
| CSCc1onc(OC(=O)N(C)C)c1Br [compound 13, 4-Bromo-3-dimethylcarbamoyloxy-5-methylthiomethylisoxazole] | 100% | 100% | mortality at 12.5 ppm [2]: 99%; mortality at 1.56 ppm [3]: 100% |
| CSCc1onc(OC(=O)N(C)C)c1I [compound 14, 3-Dimethylcarbamoyloxy-4-iodo-5-methylthiomethylisoxazole] | 86% | 100% |  |
| COCc1cc(OC(=O)N(C)C)no1 [compound 15, 3-Dimethylcarbamoyloxy-5-methoxymethylisoxazole] | 84% | 100% |  |
